Measured values: patent publication US20260055061A1, “HALOPHTHALIMIDE COMPOUNDS AND METHODS OF USE AGAINST TBI, INFLAMMATORY DISORDER, AUTOIMMUNE DISORDER, NEURODEGENERATIVE DISEASE OR VIRAL INFECTION” (The United States of America, as represented by the …, priority 2022, published 2026)

Columns and labels:
[1] = test system: LPS-induced nitrite in RAW 264.7 cells; test: LPS-induced nitrite production in RAW 264.7 cells (Griess reagent / fluorometric kit); type: cell-based, mouse; conditions: for nitrite level, % of vehicle control: percentage of vehicle control value (control = 100%), mean ± S.E.M., n = 3; for Nitrite, % Change versus Control (± s.e.m.): 10 uM
Method: Nitrite ion detection in drug treated […] cell culture media: To measure the levels of nitrite ion NO2—) the Griess Reagent System (Promega, Madison, WI, Cat #G2930) was utilized. The protocol followed was that recommended by the manufacturer. In brief a NO2— ion standard curve was prepared in culture media of the same composition to that used for the cell culture study. The concentration range of the standard curve was from 1.5 µM to 100 µM. Equal volumes (50 μL) of standards and unknown samples were added to clear 96 well plates in duplicate. Then 50 μL of sulfanilamide solution was added to each well and the plate was covered and incubated in the dark for 10 min. After the incubation period 50 μL of N-1-napthylethylenediamine dihydrochloride solution was added to each well and the plate was incubated in dark for a further 10 min. After this incubation, the plate was read at 550 nm on a SPECTRAmax PLUS plate reader and the absorbances were used to generate a NO2— standard curve and the NO2— ion levels of the unknown samples are determined using SoftMax Pro V5, Molecular Devices.
Most neurons are highly vulnerable to RNS and ROS. Nitric oxide (NO) is one of RNSs, which is very short lived and cannot be readily measured. However, nitrite is a stable end product of nitric oxide metabolism. Therefore, nitrite acts as a surrogate measure of NO. The Griess Reagent System (Promega Corporation, Madison, WI) can be applied to measure nitrite levels in culture media following the manufacturer's protocol, and this system was used in the present study as it is a more sensitive assay compared to quantifying actions on TNF-α by ELISA assay. […] This challenge induces high level of TNF-α protein accompanied by a robust generation of nitrite.
(§1) Cells were propagated as described by ATCC guidelines.

[2] = Phase I metabolic stability in human liver microsomes (+/- NADPH, LC/MS); type: in vitro ADME; conditions: for % Compound Remaining (mean), NADPH: with NADPH; for % Compound Remaining (mean), -NADPH: without NADPH
Method: The fluorinated compounds were evaluated under the more metabolically demanding conditions of a Phase-1-type microsomal analysis. […] For this initial comparison, the 7-fluoro-dithiopomaldiomide 30 was selected owing to its combination of favorable biological parameters and general ease of synthesis. The reactions on each sample were initiated by addition of human liver microsomes in the presence or absence of an NADPH regenerating system, and compound disappearance was monitored via LC/MS (FIG. 14, Table 10).

RAW 264.7 cells = test: Cell viability of drug treated RAW 264.7 cells (CellTiter 96 AQueous One, MTS); conditions: for Cell Viability % Δ: percentage of vehicle control value, mean ± S.E.M., n = 3; for Viability, % Change versus Control (± s.e.m.): 10 uM
TNF-α = test: LPS-induced TNF-α production in RAW 264.7 cells (ELISA); type: cell-based, mouse; conditions: for TNF-α % Δ: percentage of vehicle control value (control = 100%), mean ± S.E.M., n = 3; for TNF-a, % Change versus Control (± s.e.m.): 10 uM
Method: Enzyme-linked immunosorbent assay for TNF-α protein: Media TNF-α levels were measured by use of the Biolegend ELISA MAX Set Delux ELISA (#430904). The protocol used was that recommended by the manufacturer. In brief, a day prior to performing the assay, a 96 well plate was coated with a capture antibody directed against TNF-α. The following day the assay plate was washed and blocked with the kit blocking agent for 1 h while being mixed on a plate shaker at 200 rpm (all incubations were mixed at 200 rpm unless stated otherwise). A TNF-α protein standard curve was prepared in the assay diluent following the kit instructions and unknown media samples were likewise diluted in the same assay diluent. After blocking, the plate was washed and then both the standards and unknown media samples were added to the plate in duplicate. The standards and unknown samples were incubated for 2 h. After the incubation, the plate was washed and then the biotin labeled detection antibody was added to each well and incubated for a further 1 h. After this incubation, the avidin-HRP conjugate complex was added to each well and incubated for 30 min. The plate was washed and the chromogenic substrate 3,3′,5,5′-tetramethylbenzidine solution was added to each well. At this point the plate was covered and incubated in the dark for 15 min, with no mixing. After 15 min the chromogenic reaction was stopped by the addition of 2 N H2SO4 and the absorbance was read at 450 nm and for background subtractions at 570 nm, on a SPECTRAmax PLUS plate reader. The absorbances were used to generate a TNF-α a protein standard curve and the protein levels in the unknown samples were determined using SoftMax Pro V5, Molecular Devices.
as §1

[3] = 1 μM, LPS-challenged RAW 264.7 cells
[4] = 10 μM, LPS-challenged RAW 264.7 cells
[5] = 30 μM, LPS-challenged RAW 264.7 cells
[6] = LPS-activated RAW 264.7 cells (Table 9)

With `Nc1cccc2c1C(=S)N(C1CCC(=S)NC1=O)C2=O` (stereo not shown) [4′, 3,6′-dithiopomalidomide, reference compound] the “nitrite levels (in words)” value ([1]; six-compound pomalidomide grouping, RAW cell assay, FIGS. 12-13) was “reduced nitrite levels significantly”, the material consumed ([2]; after 1 hr incubation, human liver microsomes) was “more than half” and the “stability in human liver microsomes (in words)” value ([2]; with and without NADPH) was “moderate level of instability”.

For `CC1(C)[C@H]2CC[C@@H](CN3C(=O)c4c(F)c(F)c(F)c(F)c4C3=O)[C@@H]1C2` [Compound 13, 2-(((1S,2R,5S)-6,6-dimethylbicyclo[3.1.1]heptan-2-yl)methyl)-4,5,6,7-tetrafluoroisoindoline-1,3-dione], the “nitrite level, % of vehicle control” value [1, 3] was 31 ± 3%, the “nitrite inhibitory activity (comparison in words)” value ([1]; 1 μM, tetrafluoro vs corresponding difluoro or stereoisomer) was “more potent nitrite inhibitory activity” and the “Cell Viability % Δ” value (RAW 264.7 cells; 1 μM, RAW 264.7 cells) was 78 ± 3%. The “TNF-α % Δ” value (TNF-α; [3]) was 62 ± 3%.

In the case of `C[C@H]1[C@H](N2C(=O)c3c(F)ccc(F)c3C2=O)C[C@@H]2C[C@H]1C2(C)C` [Compound 17, 4,7-Difluoro-2-((1R,2R,3R,5S)-2,6,6-trimethylbicyclo[3.1.1]heptan-3-yl) isoindoline-1,3-dione], the “nitrite level, % of vehicle control” value [1, 3] is reported as 90 ± 5%, the “nitrite level, % of vehicle control” value [1, 4] is reported as 54 ± 3% and the “Cell Viability % Δ” value (RAW 264.7 cells; 1 μM, RAW 264.7 cells) is reported as 100 ± 4%. For the same compound, the “Cell Viability % Δ” value (RAW 264.7 cells; 10 μM, RAW 264.7 cells) was 81 ± 5%, the “TNF-α % Δ” value (TNF-α; [3]) was 95 ± 3% and the “TNF-α % Δ” value (TNF-α; [4]) was 77 ± 3%.

For `CC1(C)[C@H]2CC[C@@H](CN3C(=O)c4c(F)ccc(F)c4C3=O)[C@@H]1C2` [Compound 19, 2-(((1S,2R,5S)-6,6-dimethylbicyclo[3.1.1]heptan-2-yl)methyl)-4,7-difluoroisoindoline-1,3-dione], the “nitrite level, % of vehicle control” value [1, 3] was 79 ± 2%, the “nitrite level, % of vehicle control” value [1, 4] was 63 ± 3% and the “nitrite level, % of vehicle control” value [1, 5] was 22 ± 1%. The “Cell Viability % Δ” value (RAW 264.7 cells; 1 μM, RAW 264.7 cells) was 98 ± 2%, the “Cell Viability % Δ” value (RAW 264.7 cells; 10 μM, RAW 264.7 cells) was 93 ± 4% and the “Cell Viability % Δ” value (RAW 264.7 cells; 30 μM, RAW 264.7 cells) was 67 ± 3%. For the same compound, the “TNF-α % Δ” value (TNF-α; [3]) was 102 ± 2% and the “TNF-α % Δ” value (TNF-α; [4]) was 82 ± 2%.

With `CC1(C)[C@@H]2CC[C@@]1(C)[C@@H](N1C(=O)c3c(F)ccc(F)c3C1=O)C2` [Compound 20, 4,7-Difluoro-2-((1R,2S,4R)-1,7,7-trimethylbicyclo[2.2.1]heptan-2-yl) isoindoline-1,3-dione] the “nitrite level, % of vehicle control” value [1, 3] was 90 ± 2%, the “nitrite level, % of vehicle control” value [1, 4] was 78 ± 3% and the “nitrite level, % of vehicle control” value [1, 5] was 39 ± 5%. The inhibition at 30 µM ([1]; Mus musculus, RAW264.7, 30 μM, LPS-challenged RAW 264.7 cells, read-out: nitrite inhibitory activity) was 39%, the “Cell Viability % Δ” value (RAW 264.7 cells; 1 μM, RAW 264.7 cells) was 101 ± 3% and the “Cell Viability % Δ” value (RAW 264.7 cells; 10 μM, RAW 264.7 cells) was 98 ± 4%. For the same compound, the cell viability (RAW 264.7 cells; 30 μM, RAW 264.7 cells) was 96%, the “Cell Viability % Δ” value (RAW 264.7 cells; 30 μM, RAW 264.7 cells) was 96 ± 6% and the “cytotoxicity (in words)” value (RAW 264.7 cells; RAW 264.7 cells, 1 to 30 μM) was “the smallest”. For the same compound, the “TNF-α % Δ” value (TNF-α; [3]) was 100 ± 2%, the “TNF-α % Δ” value (TNF-α; [4]) was 98 ± 3% and the anti-TNF-α activity (TNF-α; [5]) was 76%. For the same compound, the “TNF-α % Δ” value (TNF-α; [5]) was 76 ± 4%.

For `CC(C)Nc1ccc(F)c2c1C(=O)N(C1CCC(=O)NC1=O)C2=O` (stereo not shown) [Compound 25, 2-(2,6-dioxopiperidin-3-yl)-4-fluoro-7-(isopropylamino) isoindoline-1,3-dione], the “Nitrite, % Change versus Control (± s.e.m.)” value ([1]; LPS-activated RAW 264.7 cells) was 110.1 ± 4.4%, the “Viability, % Change versus Control (± s.e.m.)” value (RAW 264.7 cells; LPS-activated RAW 264.7 cells) was 99.9 ± 0.4% and the “TNF-a, % Change versus Control (± s.e.m.)” value (TNF-α; LPS-activated RAW 264.7 cells) was 87.1 ± 3.4%.

With `CC(C)Nc1ccc(F)c2c1C(=O)N(C1CCC(=S)NC1=O)C2=O` (stereo not shown) [Compound 27, 4-fluoro-7-(isopropylamino)-2-(2-oxo-6-thioxopiperidin-3-yl) isoindoline-1,3-dione] the “Nitrite, % Change versus Control (± s.e.m.)” value ([1]; LPS-activated RAW 264.7 cells) was 74.8 ± 1.2%, the “Viability, % Change versus Control (± s.e.m.)” value (RAW 264.7 cells; LPS-activated RAW 264.7 cells) was 112.3 ± 1.7% and the “TNF-a, % Change versus Control (± s.e.m.)” value (TNF-α; LPS-activated RAW 264.7 cells) was 94.4 ± 2.8%.

With `CC(C)Nc1ccc(F)c2c1C(=S)N(C1CCC(=S)NC1=O)C2=O` (stereo not shown) [Compound 28, 7-fluoro-4-(isopropylamino)-2-(2-oxo-6-thioxopiperidin-3-yl)-3-thioxoisoindolin-1-one] the “Nitrite, % Change versus Control (± s.e.m.)” value ([1]; LPS-activated RAW 264.7 cells) was 32.3 ± 1.1%, the “Viability, % Change versus Control (± s.e.m.)” value (RAW 264.7 cells; LPS-activated RAW 264.7 cells) was 74.1 ± 4.2% and the “TNF-a, % Change versus Control (± s.e.m.)” value (TNF-α; LPS-activated RAW 264.7 cells) was 74.7 ± 2.3%.

With `Nc1cccc2c1C(=S)N(C1CCC(=S)NC1=O)C2=O` (stereo not shown) [drawing 90] the “Nitrite, % Change versus Control (± s.e.m.)” value [1, 6] was 43 ± 1.0 (N.S.) $ %, the “Viability, % Change versus Control (± s.e.m.)” value (RAW 264.7 cells; [6]) was 92 ± 1.8 (N.S.) % and the “TNF-a, % Change versus Control (± s.e.m.)” value (TNF-α; [6]) was 113 ± 5.4 (N.S.) %.

With `Nc1ccc(F)c2c1C(=O)N(C1CCC(=O)NC1=O)C2=O` (stereo not shown) [drawing 91] the “Nitrite, % Change versus Control (± s.e.m.)” value [1, 6] was 86 ± 3.9 (N.S.) %, the “Viability, % Change versus Control (± s.e.m.)” value (RAW 264.7 cells; [6]) was 102 ± 0.8 (N.S.) % and the “TNF-a, % Change versus Control (± s.e.m.)” value (TNF-α; [6]) was 98 ± 1.5 (N.S.) %.

In the case of `Nc1ccc(F)c2c1C(=S)N(C1CCC(=S)NC1=O)C2=O` (stereo not shown) [drawing 92], the “Nitrite, % Change versus Control (± s.e.m.)” value [1, 6] is reported as 22 ± 1.7 ( **** ) %, the “Viability, % Change versus Control (± s.e.m.)” value (RAW 264.7 cells; [6]) is reported as 95 ± 3.0 (N.S.) % and the “TNF-a, % Change versus Control (± s.e.m.)” value (TNF-α; [6]) is reported as 109 ± 2.4 (N.S.) %.

In the case of `Nc1c(F)ccc2c1C(=O)N(C1CCC(=O)NC1=O)C2=O` (stereo not shown) [drawing 93], the “Nitrite, % Change versus Control (± s.e.m.)” value [1, 6] is reported as 100 ± 5.5 (N.S.) %, the “Viability, % Change versus Control (± s.e.m.)” value (RAW 264.7 cells; [6]) is reported as 90 ± 2.6 (N.S.) % and the “TNF-a, % Change versus Control (± s.e.m.)” value (TNF-α; [6]) is reported as 93 ± 4.1 (N.S.) %.

For `Nc1c(F)ccc2c1C(=S)N(C1CCC(=S)NC1=O)C2=O` (stereo not shown) [drawing 94], the “Nitrite, % Change versus Control (± s.e.m.)” value [1, 6] was 40 ± 1.2 (N.S.) $ %, the “Viability, % Change versus Control (± s.e.m.)” value (RAW 264.7 cells; [6]) was 92 ± 1.6 (N.S.) % and the “TNF-a, % Change versus Control (± s.e.m.)” value (TNF-α; [6]) was 114 ± 3.9 (N.S.) %.

In the case of `Nc1ccc(F)c2c1C(=S)N(C1CCC(=S)NC1=O)C2=O` (stereo not shown) [drawing 96], the “% Compound Remaining (mean), NADPH” value ([2]; human liver microsomes, 0 min) is reported as 100%, the “% Compound Remaining (mean), NADPH” value ([2]; human liver microsomes, 30 min) is reported as 68% and the “% Compound Remaining (mean), NADPH” value ([2]; human liver microsomes, 60 min) is reported as 48%. For the same compound, the “% Compound Remaining (mean), -NADPH” value ([2]; human liver microsomes, 0 min) was 100%, the “% Compound Remaining (mean), -NADPH” value ([2]; human liver microsomes, 30 min) was 71% and the “% Compound Remaining (mean), -NADPH” value ([2]; human liver microsomes, 60 min) was 53%.
